Assays:
Type in all cases: physicochemical
[1] = Evaluation of UV absorption performance (1): absorbance spectra in chloroform; details: 100 μM; for Absorbance at absorption peak in wavelength region of 350 to 390 nm / Absorbance at peak end / Absorption wavelength at peak end / Molar extinction coefficient at peak (maximum molar extinction coefficient: εmax) / Wave length at absorption peak in wavelength region of 350 to 390 nm (maximum absorption wavelength: λmax): 10-mm quartz cell; for Absolute value of slope of absorption peak on long wavelength side in wavelength region of 350 to 390 nm: Equation 2
Description: Compounds 1 to 12 were diluted with 100 μM of chloroform, placed in a 10-mm quartz cell, and the absorbance spectra were measured using an ultraviolet-visible spectrophotometer (V-550, manufactured by JASCO Corporation)(FIGS. 1 to 12).
The absorption peak (maximum absorption wavelength: λmax) and absorbance in the wavelength range of 350 to 390 nm were read from the absorption spectra of Compounds 1 to 12, and the molar extinction coefficient of the peak (maximum molar extinction coefficient: εmax) was obtained by the following equation (able 1). Molar extinction coefficient:εmax(L/(mol·cm))=A:Absorbance/[c:Mol concentration(mol/L)×1:Cell optical length(cm)] [Equation 1]
In addition, from the absorption spectra of Compounds 1 to 12, assuming that an intersection of a long-wavelength side absorption spectrum in the absorption peak at 350 to 390 nm and a baseline (a line where the slope of the absorption spectrum at 380 to 500 nm is zero) is set as a […] (for example: FIG. 1), the absolute value of the slope of the absorption peak on the long-wavelength side in the wavelength region at 350 to 390 nm was obtained by the following equation: |Slope of absorption peak on long wavelength side in wavelength region of 350 to 390 nm|=|(Absorbance at peak end−Absorbance at absorption peak in wavelength region of 350 to 390 nm)/(Absorption wavelength at peak end−Wave length at absorption peak in wavelength region of 350 to 390 nm)| [Equation 2]

[2] = Evaluation of 5% weight reduction temperature (1) (TG/DTA); details: temperature increasing rate 10° C./min, 25° C. to 550° C.
Description: (§1) Compounds 1 to 8 and 10 to 12 were measured using a differential thermogravimetric simultaneous measurement device (TG/DTA6200, manufactured by SII Corporation) at a temperature increasing rate of 10° C./min and within a measurement range of 25° C. to 550° C., and the temperature at which 5 wt % reduction as the weight change (TG) took place was read (Table 6).

[3] = Maximum solubility in various monomers; details: room temperature (20 to 30° C.), 4 hours
[4] = Evaluation of UV absorption performance (2): absorbance spectra in chloroform; details: 100 μM; for Absorbance at absoprtion peak in wavelength region of 350 to 390 nm / Absorbance at peak end / Absorption wavelength at peak end / Molar extinction coefficient at peak (maximum molar extinction coefficient: εmax) / Wave length at absorption peak in wavelength region of 350 to 390 nm (maximum absorption wavelength: λmax): 10-mm quartz cell; for Absolute value of slope of absorption peak on long wavelength side in wavelength region of 350 to 390 nm: Equation 4
Description: Compounds 11 to 28 were diluted with 100 μM of chloroform and placed in a 10-mm quartz cell, and the absorbance spectra were measured using an ultraviolet-visible spectrophotometer (V-550, manufactured by JASCO Corporation)(FIGS. 11,12,14 to 29).
The absorption peak (maximum absorption wavelength: max) and absorbance in the wavelength range of 350 to 390 nm were read from the absorption spectra of Compounds 11 to 28, and a molar extinction coefficient (maximum molar extinction coefficient: εmax) of the peak was obtained by the following formula (Table 7): Molar extinction coefficient:εmax(L/(mol·cm))=A:Absorbance/[c:Mol concentration(mol/L)×1:Cell optical length(cm)] [Equation 3]
In addition, from the absorption spectra of Compounds 11 to 28, assuming that an intersection of a long-wavelength side absorption spectrum in the absorption peak at 350 to 390 nm and a baseline (a line where the slope of the absorption spectrum at […] is zero) is set as a peak end (for example: FIG. 1), the absolute value of the slope of the absorption peak on the long-wavelength side in the wavelength region at 350 to 390 nm was obtained by the following equation (Table 8): |Slope of absorption peak on long wavelength side in wavelength region of 350 to 390n|=|(Absorbance at peak end−Absorbance at absorption peak in wavelength region of 350 to 390 nm)/(Absorption wavelength at peak end−Wave length at absorption peak in wavelength region of 350 to 390 nm)| [Equation 4]

[5] = Maximum solubility in various monomers; details: acrylonitrile as a vinyl-based monomer; same evaluation method
Description: With the same evaluation method, 2 wt % of Compound 1, 5 wt % of Compound 2, 5 wt % of Compound 3, and 1 wt % of Compound 4 were each soluble in acrylonitrile as a vinyl-based monomer as well.

[6] = Evaluation of 5% weight reduction temperature (2) (TG/DTA); details: temperature increasing rate 10° C./min, 25° C. to 550° C.
Description: as §1, with “The compounds of the present invention” for “Compounds 1 to 8 and 10 to 12”, “w” for “wt”, “9).” for “6).”

| SMILES | Absorbance at absorption peak in wavelength region of 350 to 390 nm [1] | Absorbance at peak end [1] | Absorption wavelength at peak end [1] | Molar extinction coefficient at peak (maximum molar extinction coefficient: εmax) [1] | Wave length at absorption peak in wavelength region of 350 to 390 nm (maximum absorption wavelength: λmax) [1] | Absolute value of slope of absorption peak on long wavelength side in wavelength region of 350 to 390 nm [1] | 5% weight reduction temperature [2] | Maximum solubility ([3]; Dimethylacrylamide) | Maximum solubility ([3]; Hexadiene) | Maximum solubility ([3]; Methyl (meth)acrylate) | Maximum solubility ([3]; Styrene) | Maximum solubility ([3]; Vinyl acetate) | Absorbance at absoprtion peak in wavelength region of 350 to 390 nm [4] | Absorbance at peak end [4] | Absorption wavelength at peak end [4] | Molar extinction coefficient at peak (maximum molar extinction coefficient: εmax) [4] | Wave length at absorption peak in wavelength region of 350 to 390 nm (maximum absorption wavelength: λmax) [4] | Absolute value of slope of absorption peak on long wavelength side in wavelength region of 350 to 390 nm [4] | Concentration soluble in acrylonitrile [5] | 5% weight reduction temperature [6] |
| --- | --- | --- | --- | --- | --- | --- | --- | --- | --- | --- | --- | --- | --- | --- | --- | --- | --- | --- | --- | --- |
| C=CCSc1ccc2nn(-c3cc(C)cc(C(C)(C)C)c3O)nc2c1 [Compound 10, reference compound] | 1.76 | 0.00722 | 430 nm | 17600 L/mol/cm | 375 nm | 0.032 | 252 °C | ≤9 wt % | 1 wt % | ≤10 wt % | ≤20 wt % | ≤10 wt % | – | – | – | – | – | – | – | – |
| C=C(C)C(=O)OCCc1ccc(O)c(-n2nc3ccccc3n2)c1 [Compound 11, reference compound] | 1.83 | 0.0069 | 388 nm | 18300 L/mol/cm | 341 nm | 0.038 | 249 °C | 10 wt % | 2 wt % | 11 wt % | 21 wt % | 11 wt % | 1.83 | 0.0069 | 388 nm | 18300 L/mol/cm | 341 nm | 0.038 | – | – |
| C=C(C)C(=O)OCCSc1ccc2nn(-c3cc(C)cc(C(C)(C)C)c3O)nc2c1 [Compound 2] | 2.25 | 0.00727 | 421 nm | 21400 L/mol/cm | 365 nm | – | 285 °C | 15 wt % | 3 wt % | 20 wt % | 25 wt % | 15 wt % | – | – | – | – | – | – | 5 wt % | – |
| Cc1ccc(Sc2ccc3nn(-c4cc(C)cc(C(C)(C)C)c4O)nc3c2)cc1 [Compound 30] | – | – | – | – | – | – | – | – | – | – | – | – | – | – | – | – | – | – | – | 293 °C |
| C=C(C)C(=O)OCCCSc1ccc2nn(-c3cc(C)cc(C(C)(C)C)c3O)nc2c1 [Compound 3] | 2.18 | 0.00692 | 419 nm | 21600 L/mol/cm | 367 nm | – | 292 °C | 11 wt % | 5 wt % | 20 wt % | 25 wt % | 12 wt % | – | – | – | – | – | – | 5 wt % | – |
| C=C(C)C(=O)OCCCCCCSc1ccc2nn(-c3cc(C)cc(C(C)(C)C)c3O)nc2c1 [Compound 4] | 2.24 | 0.00762 | 420 nm | 22400 L/mol/cm | 368 nm | – | – | – | – | 12 wt % | 25 wt % | – | – | – | – | – | – | – | 1 wt % | – |

Other lines, results leading:

| Absorbance at absorption peak in wavelength region of 350 to 390 nm [1] | Absorbance at peak end [1] | Absorption wavelength at peak end [1] | Molar extinction coefficient at peak (maximum molar extinction coefficient: εmax) [1] | Wave length at absorption peak in wavelength region of 350 to 390 nm (maximum absorption wavelength: λmax) [1] | Absolute value of slope of absorption peak on long wavelength side in wavelength region of 350 to 390 nm [1] | 5% weight reduction temperature [2] | Maximum solubility ([3]; Dimethylacrylamide) | Maximum solubility ([3]; Hexadiene) | Maximum solubility ([3]; Methyl (meth)acrylate) | Maximum solubility ([3]; Styrene) | Maximum solubility ([3]; Vinyl acetate) | Absorbance at absoprtion peak in wavelength region of 350 to 390 nm [4] | Absorbance at peak end [4] | Absorption wavelength at peak end [4] | Molar extinction coefficient at peak (maximum molar extinction coefficient: εmax) [4] | Wave length at absorption peak in wavelength region of 350 to 390 nm (maximum absorption wavelength: λmax) [4] | Absolute value of slope of absorption peak on long wavelength side in wavelength region of 350 to 390 nm [4] | Concentration soluble in acrylonitrile [5] | 5% weight reduction temperature [6] | SMILES |
| --- | --- | --- | --- | --- | --- | --- | --- | --- | --- | --- | --- | --- | --- | --- | --- | --- | --- | --- | --- | --- |
| 2.19 | 0.00728 | 422 nm | 21900 L/mol/cm | 368 nm | – | 304 °C | – | – | – | – | – | – | – | – | – | – | – | – | – | C/C=C/C(=O)OCCCCCCSc1ccc2nn(-c3cc(C)cc(C(C)(C)C)c3O)nc2c1 [Compound 7] |
| 1.53 | 0.00617 | 423 nm | 15300 L/mol/cm | 353 nm | 0.022 | 230 °C | – | – | – | – | – | 1.76 | 0.00722 | 430 nm | 16300 L/mol/cm | 353 nm | 0.032 | – | 230 °C | Cc1cc(-n2nc3ccc(Cl)cc3n2)c(O)c(C(C)(C)C)c1 [Compound 12, reference compound] |
| 2.26 | 0.00766 | 422 nm | 22600 L/mol/cm | 368 nm | – | – | 20 wt % | 10 wt % | 20 wt % | 25 wt % | 15 wt % | – | – | – | – | – | – | 2 wt % | – | C=CC(=O)OCCCCCCSc1ccc2nn(-c3cc(C)cc(C(C)(C)C)c3O)nc2c1 [Compound 1] |
| – | – | – | – | – | – | – | – | – | – | – | – | – | – | – | – | – | – | – | 277 °C | CCCCCCSc1ccc2nn(-c3cc(C)cc(C(C)(C)C)c3O)nc2c1 [Compound 29] |

From patent US11795151B2, “Benzotriazole compound” (MIYOSHI OIL & FAT CO., LTD., priority 2017, dated 2023)
